# Results as given in article PMC9234964, “Design, Synthesis, and Biological Evaluation of a Novel Series of 4-Guanidinobenzoate Derivatives as Enteropeptidase Inhibitors with Low Systemic Exposure for the Treatment of Obesity” (Journal of Medicinal Chemistry, 2022).
# Like-named read-outs stand apart in the source and are kept apart here.
# Assays:
# [1] = biological target: T1, human enteropeptidase (Homo sapiens, UniProt P98073); assay: Human enteropeptidase enzyme assay; assay type: biochemical; conditions: for IC50: substrate and compound at room temperature, 95% confidence intervals in parentheses
# T1 construct: purchased ITSI-Biosciences, LLC #REN-260
# T1 sequence (P98073 whole entry): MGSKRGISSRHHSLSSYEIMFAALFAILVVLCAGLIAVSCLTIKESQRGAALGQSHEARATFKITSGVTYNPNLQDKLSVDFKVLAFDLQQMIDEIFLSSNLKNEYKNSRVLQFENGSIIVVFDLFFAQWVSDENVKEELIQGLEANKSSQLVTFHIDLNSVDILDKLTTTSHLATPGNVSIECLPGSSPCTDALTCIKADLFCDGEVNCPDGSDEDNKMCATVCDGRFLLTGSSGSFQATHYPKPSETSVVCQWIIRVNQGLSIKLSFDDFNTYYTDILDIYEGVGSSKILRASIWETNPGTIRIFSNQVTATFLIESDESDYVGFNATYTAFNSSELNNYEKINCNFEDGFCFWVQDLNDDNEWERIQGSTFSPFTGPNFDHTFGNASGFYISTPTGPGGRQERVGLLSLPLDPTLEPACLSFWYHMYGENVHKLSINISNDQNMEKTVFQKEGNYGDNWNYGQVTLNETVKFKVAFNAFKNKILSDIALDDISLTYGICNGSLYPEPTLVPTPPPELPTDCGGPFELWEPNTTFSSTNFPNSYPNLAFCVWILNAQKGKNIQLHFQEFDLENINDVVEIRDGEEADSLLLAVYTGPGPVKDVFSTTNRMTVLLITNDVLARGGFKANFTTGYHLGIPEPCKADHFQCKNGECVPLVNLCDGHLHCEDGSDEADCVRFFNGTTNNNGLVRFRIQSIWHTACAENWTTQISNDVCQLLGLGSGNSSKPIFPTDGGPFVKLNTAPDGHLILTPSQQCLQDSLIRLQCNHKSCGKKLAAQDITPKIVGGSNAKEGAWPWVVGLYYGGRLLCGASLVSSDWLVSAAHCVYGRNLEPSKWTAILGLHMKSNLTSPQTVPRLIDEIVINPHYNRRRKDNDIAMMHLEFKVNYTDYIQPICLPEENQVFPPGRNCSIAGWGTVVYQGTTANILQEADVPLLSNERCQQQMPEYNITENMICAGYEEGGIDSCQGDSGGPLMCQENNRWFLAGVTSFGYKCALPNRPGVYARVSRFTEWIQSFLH
# Method: Human recombinant enteropeptidase (#REN-260, ITSI-Biosciences, LLC) was diluted with an assay buffer (50 mM tricine (pH 8.0), 0.01(w/v)% Tween 20, 10 mM CaCl2) to prepare a 24 mU/mL enzyme solution. Subsequently, 5FAM–Abu–[…]CPQ2)–Lys–Lys–NH2 (purity: 97.2%, CPC Scientific, Inc.) was diluted with an assay buffer to prepare a 2.1 μM substrate solution. Compounds were dissolved in DMSO and then diluted in the assay buffer. The compound solution (5 μL/well) and the substrate solution (5 μL/well) were added to a 384-well black plate (#784076, Greiner Bio-One) and mixed. Then, the enzyme solution (5 μL/well) was added to the plate and mixed to start the reaction. The fluorescence intensity was measured at an excitation wavelength of 485 nm and a fluorescence wavelength of 535 nm using a fluorescence plate reader EnVision (PerkinElmer Inc.). Also, the same reaction as above was performed except that the test compound was not added (test compound non-supplemented group). In addition, the same reaction as above was performed except that neither the test compound nor the enzyme was added (control group).
# (§1) Inhibition rate (%) = (1 – (fluorescence intensity of the test compound supplemented group – fluorescence intensity of the control group)/(fluorescence intensity of the test compound non-supplemented group – fluorescence intensity of the control group)) × 100.
# [2] = test system: High-Fat-Diet-Fed Mice; assay: Increase in fecal protein output in high-fat-diet-fed mice; assay type: in vivo, mouse; conditions: for fecal protein output (fold of 2a): oral
# Method: A high-fat diet (HFD)-fed mouse (D12079B diet, male, 14–21 weeks old) was used for the in vivo assay. For compound screening, mice were orally administered with either the test compound (10 mg/kg) or 0.5% methylcellulose (MC) as a vehicle control. For the assessment of efficacy by systemic exposure of the compound, mice were subcutaneously administered with compound 2a (10 mg/kg) or saline as a vehicle control and compared with those administered oral treatment (60 mg/kg). Doses were selected to achieve equivalent systemic exposure as the area under the curve over 24 h based on pharmacokinetic data of both oral and subcutaneous administration. Whole feces were collected overnight, and the fecal protein output was evaluated as described previously.[33]
# [3] = test system: Human Multi-drug Resistance 1 (MDR-1) Expressing Cells; assay: Membrane permeability with MDR1-expressing cells (A to B); assay type: in vitro ADME; conditions: apical to basolateral, 10 μmol/L, 2 h
# Method: The transcellular transport study was performed as reported previously.[40] In brief, the cells were grown in a HTS transwell 96 well permeable support (pore size 0.4 μm, 0.143 cm^2 surface area) with a polyethylene terephthalate membrane (Corning Life Sciences, Lowell, MA, USA) at a density of 1.125 × 10^5 cells/well. The cells were preincubated with M199 at 37 °C for 30 min. Subsequently, transcellular transport was initiated by the addition of M199 to apical compartments containing 10 μmol/L test compounds and terminated by the removal of each assay plate after 2 h. The aliquots in the opposite compartments were subjected to be measured for compound concentration by LC–MS/MS. Permeability was calculated using the permeated compound concentration.
# [4] = Aqueous stability at pH 1.2/6.8; assay type: physicochemical; conditions: 24 h; for stability at pH 1.2 (% decomposed): pH 1.2, 37 °C; for stability at pH 6.8 (% decomposed): pH 6.8, 37 °C
# Method: Sample solutions in pH 1.2/6.8 media (first/second fluids for the disintegration test in the Japanese Pharmacopoeia 17th edition, including 10% dimethyl sulfoxide if needed, 10 μg/mL) were prepared for the compounds and incubated at 37 °C. The sample solutions were measured initially and at 24 h using HPLC, and peak analysis was conducted. Residual contents (%) of the compounds in pH 1.2/6.8 media at 37 °C after 24 h of incubation of the initial solutions were calculated using the peak areas.
# [5] = Kinetic aqueous solubility at pH 1.2/6.8; assay type: physicochemical; conditions: aqueous medium, kinetic from dmso stock
# [6] = biological target: T1, human enteropeptidase; assay: Dissociation assay (recovery of active enzyme after rapid dilution); assay type: biochemical; conditions: rapid dilution after 2 h preincubation of compound and enzyme
# From the text: Although not all reaction constants for 1c could be identified, the in vitro IC50 value could be used as an indicator of the combination of k1, k–1, and k2. In this case, the IC50 value of a compound is derived from its affinity for enteropeptidase (k1 and k–1) and its reactivity against enteropeptidase (k2). […] As the affinity of a compound for enteropeptidase is expected to largely contribute to the IC50 value based on initial velocities (IC50(initial)) relative to the IC50 value based on the steady state (IC50(app)), we performed chemical modifications based on IC50(initial). […] Because T1/2 can be an indicator of k3, we focused on compounds with low IC50(initial) values and long T1/2 values.
# For dissociation assay, compounds were dissolved in DMSO and then diluted in assay buffer (50 mM Tricine pH 8.0, 0.01(w/v)% Tween20, 10 mM CaCl2). 10 μL of compound solution was added in 96-well plate (corning), and then, 10 μL of 100 mU/mL human recombinant enteropeptidase (ITSI-Biosciences) solution was added into the plate and incubated at room temperature for 2 h. […] After incubation, 2 μL of the compound-enzyme mixture was transferred to a 96-well black plate (Corning) and 200 μL of substrate solution (3 μM 5FAM–Abu–[…]CPQ2)–Lys–Lys–NH2 (CPC Scientific)) was added into the well. By rapid dilution, the inhibitor concentration went to 10-fold below the IC50 from 10-fold above the IC50. The fluorescence was measured each 2 min at excitation wavelength 485 nm and emission wavelength 535 nm by EnVision (Perkin Elmer). The progress curves were fitted to following equation to determine the values for koff and dissociation half-life T1/2 according to the following equations. [drawing 4] 1 where t is time and F is fluorescence from initial rate vo to steady state rate vs. [drawing 5] 2
# [7] = PAMPA (parallel artificial membrane permeability assay); assay type: in vitro ADME; conditions: PAMPA
# [8] = Plasma exposure of 2a in mice (oral and subcutaneous); assay type: in vivo; conditions: male, mouse, read-out: AUC0-24h
# [9] = biological target: rat enteropeptidase (Rattus norvegicus, UniProt A0ABK0LTS6); assay: Rat enteropeptidase enzyme assay; assay type: biochemical
# Sequence of rat enteropeptidase (A0ABK0LTS6 829-1068): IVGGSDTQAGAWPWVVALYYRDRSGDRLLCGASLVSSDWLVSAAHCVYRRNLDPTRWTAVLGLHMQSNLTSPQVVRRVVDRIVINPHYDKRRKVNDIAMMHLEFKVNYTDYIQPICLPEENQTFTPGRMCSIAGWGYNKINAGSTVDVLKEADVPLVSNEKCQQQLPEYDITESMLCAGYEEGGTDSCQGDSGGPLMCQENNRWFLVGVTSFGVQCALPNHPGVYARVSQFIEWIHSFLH
# Method: The rat enteropeptidase catalytic subunit (aa 818-1057, GenBank accession no. XM_017597944) was cloned into the BglII-NotI site of the pET32a vector (Millipore). The active rat enteropeptidase catalytic subunit was obtained as described previously.[36] The rat recombinant enteropeptidase was diluted with an assay buffer (50 mM Tricine (pH 8.0), 0.01(w/v)% Tween 20, 10 mM CaCl2) to prepare a 2.4 ng/mL enzyme solution. Subsequently, 5FAM–Abu–[…]CPQ2)–Lys–Lys–NH2 (purity: 97.2%, CPC Scientific, Inc.) was diluted with an assay buffer to prepare a 5.4 μM substrate solution. Compounds were dissolved in DMSO and then diluted in the assay buffer. The compound solution (5 μL/well) and the substrate solution (5 μL/well) were added to a 384-well black plate (#784076, Greiner Bio-One) and mixed. Then, the enzyme solution (5 μL/well) was added to the plate and mixed to start the reaction. The fluorescence intensity was measured at an excitation wavelength of 485 nm and a fluorescence wavelength of 535 nm using a fluorescence plate reader EnVision (PerkinElmer Inc.). […]
# as §1
# [10] = Pharmacokinetics in rats; assay type: in vivo, rat
# Method: […] After administration, blood samples were collected and centrifuged to obtain plasma specimens. The compound concentrations in the plasma were measured using LC–MS/MS.
# [11] = test system: DIO rats; assay: Anti-obesity effects in male DIO rats (repeated dosing, 4 weeks); assay type: in vivo, rat; conditions: oral, 6b 1, 3 and 10 mg/kg; for body weight change / food intake: (S)-5b 10 mg/kg; for fecal protein output: day 28, (S)-5b 10 mg/kg
# Method: Six-week-old male DIO F344/Jcl rats were obtained from CLEA Japan (Tokyo, Japan) and fed with a HFD D12451 (45 kcal % fat, 20 kcal % protein, and 35 kcal % carbohydrate; Research Diets, Inc.). The study involved six groups of rats (n = 6): vehicle (0.5% MC), 6b (1, 3, and 10 mg/kg), (S)-5b (SCO-792) (10 mg/kg), and sibutramine (1 mg/kg). […] were orally administered with either the vehicle or compounds starting at 36 weeks of age for 4 weeks. The body weight was monitored every 1–4 days for 4 weeks. The change in body weight is presented as a percentage of the initial body weight. Feces were collected on day 28 and evaluated for pharmacodynamic markers.
# [12] = test system: DIO mice; conditions: cited from earlier work
# [13] = test system: enteropeptidase; parameters: method as in PMID 33033171; conditions: cited from earlier work
# [14] = 6 min incubation of enzyme, read-out: Human enteropeptidase IC50(initial)
# [15] = 120 min incubation of enzyme, read-out: Human enteropeptidase IC50(app)
"IC50 [1, 14]","IC50 [1, 15]",MDR1 (A to B) [3],stability at pH 1.2 (% decomposed) [4],stability at pH 6.8 (% decomposed) [4],Compound,fecal protein output (fold of 2a) ([2]; 10 mg/kg),body weight change [11],food intake [11],fecal protein output [11],body weight [12],further results
94 nM,5.9 nM,0 nm/s,2.5 % decomposed,5.0 % decomposed,"Cl.N=C(N)Nc1ccc(C(=O)Oc2ccc(CC(=O)N[C@@H](CC(=O)O)C(=O)O)cc2)cc1 [2a, N-({4-[(4-Carbamimidamidobenzoyl)oxy]phenyl}acetyl)-L-aspartic Acid Hydrochloride]",(1.00) fold of 2a,–,–,–,–,"fold enhancement in IC50(initial) relative to 1c ([1]; 6 min, glycine replaced with aspartic acid): five-fold; fecal protein content vs vehicle ([2]; oral administration, 60 mg/kg): significant increase; fecal protein levels vs vehicle ([2]; subcutaneous administration, 10 mg/kg): did not increase; solubility kinetic ([5]; pH 1.2, simulated gastric fluid, read-out: Kinetic aqueous solubility at pH 1.2): 76 µg/mL; solubility kinetic ([5]; pH 6.8, aqueous buffer, read-out: Kinetic aqueous solubility at pH 6.8): > 97 µg/mL; T1/2, half-time of dissociation from human enteropeptidase [6]: >2 h; Papp ([7]; pH 7.4, read-out: PAMPA at pH 7.4): 0.2 ×10⁻⁶ cm/s; Papp ([7]; pH 5.0, read-out: PAMPA at pH 5.0): 0.1 ×10⁻⁶ cm/s; AUC(0-t) at 24 h ([8]; oral, 60 mg/kg): 9820 ± 3740 ng·h/mL; AUC(0-t) at 24 h ([8]; sc, subcutaneous, 10 mg/kg): 16000 ± 2640 ng·h/mL"
20 nM,1.2 nM,0 nm/s,1.1 % decomposed,7.3 % decomposed,"N=C(N)Nc1ccc(C(=O)Oc2cccc(C3=NO[C@](CC(=O)O)(C(=O)O)C3)c2)cc1 [6b, (5R)-3-{3-[(4-Carbamimidamidobenzoyl)oxy]phenyl}-5-(carboxymethyl)-4,5-dihydro-1,2-oxazole-5-carboxylic Acid]",1.29 fold of 2a,potent body weight loss in a dose-dependent manner,significant reduction,significant increase,–,"IC50 ([9]; 120 min, supplement csv, unit inferred, read-out: rat enteropeptidase IC50 (120 min)): 1.5 nM; PK in rats, plasma concentration ([10]; 1 mg/kg p.o., below the lower limit of quantitation): < 1 ng/mL; melting point: 199 °C (dec.)"
–,–,–,–,–,CN(C)C(=O)COC(=O)Cc1ccc(OC(=O)c2ccc(NC(=N)N)cc2)cc1 [camostat],–,–,–,–,induced body weight loss,enteropeptidase activity [13]: inhibited enteropeptidase activity

Compound,"IC50 [1, 14]","IC50 [1, 15]",MDR1 (A to B) [3],stability at pH 1.2 (% decomposed) [4],stability at pH 6.8 (% decomposed) [4],fecal protein output (fold of 2a) ([2]; 10 mg/kg),body weight change [11],food intake [11],fecal protein output [11],body weight [12],further results
"N=C(N)Nc1ccc(C(=O)Oc2ccc3c(c2)OC[C@H]3CC(=O)N[C@@H](CC(=O)O)C(=O)O)cc1.O [(S)-5b, N-({(3S)-6-[(4-Carbamimidamidobenzoyl)oxy]-2,3-dihydro-1-benzofuran-3-yl}acetyl)-L-aspartic Acid Hydrate]",68 nM,–,0 nm/s,0.2 % decomposed,4.4 % decomposed,1.28 fold of 2a,body weight loss,reduction,significant elevation,potent body weight reduction,IC50 [9]: 4.6 nM; PK in rats BA ([10]; 10 mg/kg p.o. and 0.2 mg/kg i.v.): 0.4%
